# Reference: the supplement of paper PMC11208160
# Assay: recombinant UMI read abundance after kanamycin selection (control-corrected) (log10(CPM+1)); higher = more efficient recombination; extreme values may be limits of the assay; sequences stand for … in AGTGCAGAGAAAATCGGCCAGTTTTCTCTGCCTGCAGTCCGCATGCCGTGGGACCCCTTGGGTTCTAACCTGTTGCCTAGATTTATGCAGCGGACTGCCTTTCTCCCAAAGTGATAAACCGG…AGGTTGGTTTCACT; site = the 11-nt donor
# Procedure: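 Pooled E. coli donor-specificity screen for the IS621 bridge recombinase. Each library member carries a reprogrammed 11-nt donor and a full-length LE bridge RNA expressed in cis from the natural promoter, with a paired donor-binding loop (8-nt LDG + 4-nt RDG) and a target-binding loop fixed to T5. It is co-electroporated with a T5 target plasmid; recombinase is induced with 0.07 mM IPTG and recombinants are selected on kanamycin. UMIs are counted as CPM, averaged over two biological replicates and corrected by the unselected control. Molecule = full bridge RNA written as DNA, built from the T5 scaffold: LDG = donor specificity nt 1-8, RDG = reverse complement of nt 8-11.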
# 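Note: IS621 bridge recombinase in Escherichia coli cells against a fixed T5 target plasmid.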
row,Sequence,recombinant UMI read abundance (log10)
1,TAGAACACATGGACCGGTTTTCCCGGTAATCCGTATTTGCA (site TAGAATACTTG),1.87
2,GAAAGGCCATGGACCGGTTTTCCCGGTAATCCGTATTTGCA (site GAACGGCCTTG),0
3,ACGCACACATGGACCGGTTTTCCCGGTAATCCGTATTTGAA (site ACGCACACTTT),2.08
4,CCCAATACATGGACCGGTTTTCCCGGTAATCCGTATTTGGC (site CCCAATACTGC),0
5,ACCAGAACATGGACCGGTTTTCCCGGTAATCCGTATTTGAG (site ACGAGAACTCT),0
6,ACTAGTGCATGGACCGGTTTTCCCGGTAATCCGTATTTGGT (site ACTAGTTCTAC),0.264
7,TATTGGGCATGGACCGGTTTTCCCGGTAATCCGTATTTGTG (site TATTAGGCTCA),0.0242
8,GACTGGCCATGGACCGGTTTTCCCGGTAATCCGTATTTGCA (site GATTGGCCTTG),0.0169
9,TAGGAATCATGGACCGGTTTTCCCGGTAATCCGTATTTGCA (site TAGGAATCTTG),2.82
10,ACAAGTTCATGGACCGGTTTTCCCGGTAATCCGTATTTGTC (site ACAAGTTCTGA),0
11,GAGCTCACATGGACCGGTTTTCCCGGTAATCCGTATTTGAC (site GAGCTCACTGT),2.53
12,TGATCAACATGGACCGGTTTTCCCGGTAATCCGTATTTGCT (site CGATCATCTAG),0
13,TGCAATCCATGGACCGGTTTTCCCGGTAATCCGTATTTGAA (site AGCAATCCTTT),0.00584
14,GGCCAGGCATGGACCGGTTTTCCCGGTAATCCGTATTTGTT (site GGCCAGGCTAA),0.00326
15,CTCCCTGCATGGACCGGTTTTCCCGGTAATCCGTATTTGAG (site CTCCCTTCTCT),0.325
16,GCAGGTGCATGGACCGGTTTTCCCGGTAATCCGTATTTGAT (site TCAGGTGCTAT),1.52
17,GTGCATGCATGGACCGGTTTTCCCGGTAATCCGTATTTGCT (site GTGCATGCTAT),0.999
18,AAAGATCCATGGACCGGTTTTCCCGGTAATCCGTATTTGCC (site AAAGATCCTGG),0
19,GACGATTCATGGACCGGTTTTCCCGGTAATCCGTATTTGTT (site GACGATTCTAA),2.04
20,AAGCAAGCATGGACCGGTTTTCCCGGTAATCCGTATTTGGG (site AAGCATGCTCC),0.0463
21,TAGCTAGCATGGACCGGTTTTCCCGGTAATCCGTATTTGAA (site TAGCTAGCTAT),0.502
22,GGGGGACCATGGACCGGTTTTCCCGGTAATCCGTATTTGCA (site GGGGGACCTTG),0
23,GGCTCAACATGGACCGGTTTTCCCGGTAATCCGTATTTGCT (site GGCTCAACTAG),0
24,CGCAGACCATGGACCGGTTTTCCCGGTAATCCGTATTTGGG (site CGCAGACCTCC),0.0135

row,Sequence,recombinant UMI read abundance (log10)
1,ACTACTGCATGGACCGGTTTTCCCGGTAATCCGTATTTGCC (site TCTACTGCTGG),1.03
2,TTTGTCACATGGACCGGTTTTCCCGGTAATCCGTATTTGGA (site TTTGTCACTTC),0.187
3,TCACACTCATGGACCGGTTTTCCCGGTAATCCGTATTTGAT (site TCACACTCTAT),2.38
4,GGATGGCCATGGACCGGTTTTCCCGGTAATCCGTATTTGCA (site GCATGGCCTTG),0
5,GCGAAAACATGGACCGGTTTTCCCGGTAATCCGTATTTGCT (site TCGAAAACTAG),0
6,ACTTCTTCATGGACCGGTTTTCCCGGTAATCCGTATTTGTC (site ACTTCTTCTGA),0
7,CCCGGTCCATGGACCGGTTTTCCCGGTAATCCGTATTTGCA (site CCCGGTCCTCG),0
8,GACAATCCATGGACCGGTTTTCCCGGTAATCCGTATTTGAA (site GTCAATCCTTT),0.0122
9,GGTACGGCATGGACCGGTTTTCCCGGTAATCCGTATTTGTT (site GGTACGTCTAA),0
10,ACTAGACCATGGACCGGTTTTCCCGGTAATCCGTATTTGAG (site ACTAGACCTCT),0.0176
11,GCATCTACATGGACCGGTTTTCCCGGTAATCCGTATTTGTG (site ACATCTACTCA),0.6
12,ATAAGGCCATGGACCGGTTTTCCCGGTAATCCGTATTTGCC (site ATAAGGCCTGT),0
13,CAATCCCCATGGACCGGTTTTCCCGGTAATCCGTATTTGCT (site CAATACCCTAG),1.5
14,TTTGCGGCATGGACCGGTTTTCCCGGTAATCCGTATTTGCG (site TTTGCGGCTAG),0.00371
15,CACTTGGCATGGACCGGTTTTCCCGGTAATCCGTATTTGGA (site CACTCGGCTTC),0.0123
16,GCGAAAACATGGACCGGTTTTCCCGGTAATCCGTATTTGCT (site GCGAAAACTAT),0.00596
17,GTTCGACCATGGACCGGTTTTCCCGGTAATCCGTATTTGCA (site GTTCGAGCTTG),0
18,TTCCAGGCATGGACCGGTTTTCCCGGTAATCCGTATTTGAG (site TTCCAGGCTCT),0.0112
19,ACAGCGCCATGGACCGGTTTTCCCGGTAATCCGTATTTGTT (site ACAGCGCCTAA),0.431
20,GTCAGACCATGGACCGGTTTTCCCGGTAATCCGTATTTGGT (site GTCAGACCTAC),0
21,AGGAAGACATGGACCGGTTTTCCCGGTAATCCGTATTTGCA (site GGGAAGGCTTG),0
22,CAGGTCACATGGACCGGTTTTCCCGGTAATCCGTATTTGGG (site CACGTCACTCC),0.00865
23,CAAGACACATGGACCGGTTTTCCCGGTAATCCGTATTTGGG (site CAAGGCACTCC),0.0364
24,CCGTTTGCATGGACCGGTTTTCCCGGTAATCCGTATTTGCT (site CCGTTTCCTAG),0

row,Sequence,recombinant UMI read abundance (log10)
1,CGATCGACATGGACCGGTTTTCCCGGTAATCCGTATTTGTT (site CGATTGACTAA),0.0149
2,GGCCACCCATGGACCGGTTTTCCCGGTAATCCGTATTTGTT (site GGCCGCCCTAA),0.0085
3,AATTATTCATGGACCGGTTTTCCCGGTAATCCGTATTTGGA (site AATTATCCTTC),0.553
4,GTTGTATCATGGACCGGTTTTCCCGGTAATCCGTATTTGAC (site CTAGTATCTGT),1.45
5,GGAGTGGCATGGACCGGTTTTCCCGGTAATCCGTATTTGGG (site GGAGTGGCTGC),0
6,TGCTGGGCATGGACCGGTTTTCCCGGTAATCCGTATTTGCC (site TGCTGGGCTGG),0.00658
7,GTTGTTCCATGGACCGGTTTTCCCGGTAATCCGTATTTGGG (site GTTGTTCCTAC),0.0139
8,TGCCGATCATGGACCGGTTTTCCCGGTAATCCGTATTTGCG (site TGCCGATCTCG),0.225
9,ACGGTATCATGGACCGGTTTTCCCGGTAATCCGTATTTGTA (site ACGGTATCTTA),3.09
10,AGGAAGACATGGACCGGTTTTCCCGGTAATCCGTATTTGCA (site AGGGAGTCTTG),0
11,CGGACATCATGGACCGGTTTTCCCGGTAATCCGTATTTGCT (site CGGACTTCTAG),0.255
12,GCCACGTCATGGACCGGTTTTCCCGGTAATCCGTATTTGTA (site GCCACGCCTTA),0.0201
13,GTCCAAGCATGGACCGGTTTTCCCGGTAATCCGTATTTGAG (site CTCCAAGCTCT),0
14,CCTTTGGCATGGACCGGTTTTCCCGGTAATCCGTATTTGCT (site CTTTTGGCTAG),0.00684
15,ACATTGCCATGGACCGGTTTTCCCGGTAATCCGTATTTGGG (site ACATTGCCTCC),0.0159
16,TCATTTACATGGACCGGTTTTCCCGGTAATCCGTATTTGGA (site TCATTTACTTC),0.164
17,CAACCAGCATGGACCGGTTTTCCCGGTAATCCGTATTTGCT (site CAACCAGCTAG),0
18,TGCCGTACATGGACCGGTTTTCCCGGTAATCCGTATTTGCT (site CGCCGTACTAG),0.514
19,CGCGGCCCATGGACCGGTTTTCCCGGTAATCCGTATTTGTT (site CCCGGCCCTAA),0.00728
20,ACCTAGACATGGACCGGTTTTCCCGGTAATCCGTATTTGAG (site ACCTAGACTCC),0.241
21,AGAAGGGCATGGACCGGTTTTCCCGGTAATCCGTATTTGCT (site AGAAGGGCTAG),2.64
22,ACACTTCCATGGACCGGTTTTCCCGGTAATCCGTATTTGAC (site ACACGTCCTGT),1.08
23,ATCCACGCATGGACCGGTTTTCCCGGTAATCCGTATTTGAG (site ATCCACGCTCT),0.817
24,GTTCGACCATGGACCGGTTTTCCCGGTAATCCGTATTTGCA (site GTTCGATCTTG),0
